Columns and labels:
[1] = Tolerability of EtHOBA in control mice (body weight, organs); type: in vivo
Experimental: FIGS. 3A and 3B show data from C57BL/6 mice were treated or not with various concentrations of EtHOBA. (A) Body weight was assessed every day. (B) After 6 days, mice were euthanized and EtHOBA was measured in the colon. n=5 mice/group.
The present inventors analyzed the effect of various concentrations of EtHOBA and its bioavailability in control mice. […] After 6 days of treatment, EtHOBA concentrations in the colon were analyzed using liquid chromatography electrospray ionization tandem mass spectrometry (LC/EST/MS/MS).

[2] = test system: colonic immune response; assay: Colonic immune response in AOM-DSS mice (infiltration score, gene expression, IF); type: in vivo, C57BL/6 mice
Text: The present inventors used the tissues generated for FIG. 5 to study immune cell responses in AOM-DSS-treated mice±EtHOBA.
Using the tissues from the same mice as in FIG. 5, the present inventors analyzed the expression of key genes encoding mediators of the innate and adaptive immune response. […] Importantly, the overall pattern was that the genes encoding antitumoral effectors were expressed at a higher level in mice that were given compounds of the present invention. […] In contrast, the gene encoding the immunosuppressive myeloid mediator AR G1 was not affected by EtHOBA (FIG. 9). Using IF, we confirmed that mice treated with AOM-DSS mice that were given EtHOBA had increased CD68^+NOS2^+ (M1 macrophages) in colon tumors (FIG. 10).

[3] = Reaction rate of scavengers with dicarbonyl electrophiles / LG relative to lysine; conditions: faster than lysine
Text: Under conditions such as inflammation and/or accumulated mutations, epithelial cells and adjacent immune cells express genes encoding enzymes involved in carcinogenesis, such as prostaglandin-endoperoxide synthase (PGHS2; COX2), NADPH oxidases, and spermine oxidase. The products of these enzymes (prostaglandins, O2D, and H2O2 plus 3-aminopropanal) lead to formation of dicarbonyl electrophiles: levuglandins (LGs), malondialdehyde (MDA), 4-oxo-nonenal (4-O NE), and acrolein. Electrophiles may lead to immune dysfunction and neoplastic risk by forming adducts with proteins and DNA11-15. However, the role of these reactive aldehydes in colon carcinogenesis is previously unknown. The present inventors have discovered that the level of LG-protein adducts is increased in the colon tissues of i) human ulcerative colitis (UC), colitis-associated carcinogenesis (CAC), and CRC; ii) mice treated with azoxymethane-dextran sulfate sodium (AOM-DSS), a model of CAC; and iii) transgenic mice with a tamoxifen-inducible disruption of Apc using the colon-specific, caudal type homeobox 2 (CDX2) Cre (CDX2P-CreERT2;Apcff), which recapitulates sporadic/genetically-driven CRC. […]

[4] = test system: mucosal immune responses; assay: Gastritis and mucosal cytokines/chemokines in infected INS-GAS mice; type: in vivo; conditions: EtSA
Experimental: As discussed further in the Examples, the human gastric epithelial cell line AGS was infected with Hp PMSS1±10 mM EtSA. FVB/N insulin-gastrin (INS-GAS) mice and Mongolian gerbils were infected for 8 wk with Hp PMSS1 and 7.13, respectively; EtSA (0.75% in water) was given to animals beginning one wk post-infection. Lys-LG adducts, a marker of electrophile reactions, and EtSA were quantified by LC/EST/MS/MS. Histology was analyzed on H&E staining. DNA damage was evaluated by pH2AX staining. Hp colonization was quantified by culture. Mucosal immune responses were determined by RNA profiling and by Luminex assay. Mice were imaged using PET/CT with ^18F-FDG (inflammation marker) and ^18F—NaF (tumor marker).

[5] = test system: LG-protein adducts; assay: IHC for LG-protein adducts in colons of AOM-DSS mice; type: in vivo, C57BL/6 mice; conditions: 1.5 mg/ml EtHOBA
Text: The present inventors performed immunohistochemistry (IHC) staining using the single chain antibody (Ab) D11, which specifically binds to L G-protein adducts, and a tissue microarray (TMA) from VUMC that contains colon tissues from patients with ulcerative colitis (UC), and associated precancerous and cancerous lesions. Histopathologic diagnoses were established from clinical case material from surgical resections and confirmed by H&E staining of the TMA. High levels of L G-protein adducts were present in active colitis, dysplasia, and carcinoma compared to normal patients (FIG. 2). On the TMA, 7/9 (78%) high grade dysplasia (HGD) cores and 21/23 (91%) CAC cores were scored positive for L G adducts.
Animals receive an i.p. injection of the carcinogen AOM (12.5 mg/kg) followed by 3 cycles of 4% DSS, each for 4 days, over a total of 56-77 days. To directly determine the role of electrophiles in colon carcinogenesis, the present inventors tested the effect of EtHOBA in C57BL/6 mice in the AOM-DSS model. Mice were given 1.5 mg/ml EtHOBA one day after AOM and continued throughout the experiments, except during the DSS cycles, to avoid mixing. The present inventors assessed electrophiles in colons of mice treated with AOM-DSS, by IHC for electrophile protein adducts. […]

For `CCc1ccc(O)c(CN)c1` [EtHOBA, 5-ethyl-2-hydroxybenzylamine], the Body weight ([1]; 3.7 mg/ml EtHOBA, control mice, 6 days) was “lost weight on day 1, but did not lose additional weight and did not die”, the Body weight ([1]; 0.37-1.5 mg/ml EtHOBA, compared to untreated mice) was “no loss of body weight” and the colon weight/length ([1]; 1.5 or 3.7 mg/ml EtHOBA) was “no change in colon weight/length”. The “macroscopic evidence of organ damage” value ([1]; 1.5 or 3.7 mg/ml EtHOBA) was “no macroscopic evidence of organ damage”, the immune cell infiltration ([2]; AOM-DSS mice, EtHOBA vs untreated) was “more influx of immune cells” and the “Arg1 (ARG1) expression” value ([2]; AOM-DSS ± EtHOBA) was “not affected”. For the same molecule, the “CD68+NOS2+ (M1 macrophages) in colon tumors” value ([2]; IF, AOM-DSS mice) was “increased”, the “histology in control mice” value ([2]; control mice given EtHOBA) was “no effect on histology” and the Il12a expression ([2]; non-tumor and tumor tissue, AOM-DSS ± EtHOBA) was “reached statistical significance for an increase”. The Il17 expression ([2]; non-tumor tissue, AOM-DSS ± EtHOBA) was “reached statistical significance for an increase”, the Il12b expression ([2]; tumor tissue, AOM-DSS ± EtHOBA) was “reached statistical significance for an increase” and the Nos2 expression ([2]; tumor tissue, AOM-DSS ± EtHOBA) was “reached statistical significance for an increase”. For the same molecule, the Tnfa expression ([2]; tumor tissue, AOM-DSS ± EtHOBA) was “reached statistical significance for an increase”, the “rate of reaction with dicarbonyl electrophiles” value [3] was 3 orders of magnitude and the histologic gastritis [4] was “not affected”. For the same molecule, the “tissue cytokines and chemokines” value [4] was “not affected” and the “LG-protein adducts (IHC staining)” value [5] was “marked attenuation”.

— patent US11696903B2, “Compounds and methods for scavenging dicarbonyl electrophiles” (VANDERBILT UNIVERSITY, priority 2019, dated 2023)
